In US20240124460A1, “METHODS AND COMPOSITIONS FOR TARGETED PROTEIN DEGRADATION” (Ranok Therapeutics (Hangzhou) Co. Ltd., priority 2020, published 2024):

Assays:
HSP90α protein [1] = target: T1, HSP90α protein (Homo sapiens, UniProt P07900); assay: HSP90α-binding FP (BODIPY) assay; conditions: FP competition with BODIPY-labeled RNK04010
T1 construct: purchased BPS Bioscience #50298
Outline: (§1)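 Fluorescence polarization measured competition with N-terminal human HSP90α, using either FITC-geldanamycin or BODIPY-labelled triazolone RNK04010 as tracer (5 nM final each). Compounds were tested in 2.5-fold dilutions from 20 μM to 5.2 nM, with incubation at 25 °C for 120 min (FITC) or 300 min (BODIPY).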

HSP90α protein [2] = target: T1, HSP90α protein; assay: HSP90α-binding FP (FITC) assay; conditions: FP competition with FITC-geldanamycin
Outline: as §1

ERBB2 = ERBB2 (HER2) flow cytometry protein degradation assay in BT-474 cells; assay type: cell-based, human; conditions: DC50, BT-474 cells, 24 hr
Outline: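 BT-474 cells trypsinised after compound treatment and stained with PE-conjugated anti-ERBB2 antibody, 30 min at 25° C in the dark, then fixed in 1% paraformaldehyde for flow cytometry. % inhibition = 100−(D−B)/(S−B)*100, using treated, untreated-stained and unstained cell fluorescence.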

[3] = test system: A549 human lung carcinoma; assay: A549 CCK-8 proliferation assay; assay type: cell-based; conditions: A549 cells, 72 hr
Method: (§2) The following cancer cell lines were employed: A549 human lung carcinoma (ATCC, #CCL-185); BT-474 human breast carcinoma (ATCC, #HTB-20); MDA-MB-231 human breast adenocarcinoma (ATCC, #CRM−HTB-26); MDA-MB-468 human breast adenocarcinoma (ATCC, #HTB-132); MV-4-11 human acute myeloid leukemia (ATCC, #CRL-9591); and U-87 MG human glioblastoma (ATCC, #HTB-14). Cell lines were cultured essentially according to ATCC recommendations.
(§3) 3-fold serial dilutions of each test compound were prepared ranging from 20 μM to 1.02 nM.
(§4) % Inhibition=100−(D−B)/(S−B)*100%. • S: Absorbance of cells treated with DMSO • D: Absorbance of compound-treated cells • B: Absorbance of medium with DMSO without cells

[4] = test system: MDA-MB-231 human breast adenocarcinoma; assay: MDA-MB-231 CCK-8 proliferation assay; assay type: cell-based; conditions: MDA-MB-231 cells, 72 hr
Method: as §2, §3, §4

[5] = test system: MDA-MB-468 human breast adenocarcinoma; assay: MDA-MB-468 CCK-8 proliferation assay; assay type: cell-based; conditions: MDA-MB-468 cells, 72 hr
Method: as §2, §3, §4

[6] = test system: MV-4-11 human acute myeloid leukemia; assay: MV-4-11 CCK-8 proliferation assay; assay type: cell-based; conditions: MV-4-11 cells, 72 hr
Outline: (§5)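 Cells grown per ATCC recommendations were treated with 3-fold serial compound dilutions from 20 μM to 1.02 nM. CCK-8 absorbance was converted to % inhibition against DMSO-treated cells, with cell-free medium containing DMSO as the blank.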

[7] = test system: U-87 MG human glioblastoma; assay: U87 MG CCK-8 proliferation assay; assay type: cell-based; conditions: Homo sapiens, U-87 MG, 72 h, U-87 MG cells, read-out: U87MG CCK-8
Outline: as §5

MAPK7 [8] = target: T2, MAPK7 (Homo sapiens, UniProt Q13164); assay: MAPK7 Western blot protein degradation assay in U-87 MG cells; assay type: cell-based; design: U-87 MG human glioblastoma cells, which express MAPK7; endogenous in cells; host or cells: U-87 MG; conditions: 48 hr
Outline: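 U-87 MG glioblastoma cells treated with compounds at various concentrations for 48 h at 37 °C. MAPK7 (ERK5) levels in protein-normalized lysates measured by Western blot with β-actin as loading reference, quantified by fluorescence imaging.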

MAPK7 [9] = target: T2, MAPK7; assay: MAPK7 kinase assay (ADP-Glo); assay type: biochemical; design: purchased Carna Biosciences #04-146; conditions: ATP 340 μM
Outline: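 Recombinant human MAPK7 (20 nM) with 0.1 mg/ml myelin basic protein and 340 μM ATP; compounds in 3-fold dilutions from 50 μM to 2.54 nM. ADP formation read by ADP-Glo luminescence, scaled between 0.5% DMSO and 10 μM XMD17-109 controls.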

T2 sequence (Q13164 whole entry): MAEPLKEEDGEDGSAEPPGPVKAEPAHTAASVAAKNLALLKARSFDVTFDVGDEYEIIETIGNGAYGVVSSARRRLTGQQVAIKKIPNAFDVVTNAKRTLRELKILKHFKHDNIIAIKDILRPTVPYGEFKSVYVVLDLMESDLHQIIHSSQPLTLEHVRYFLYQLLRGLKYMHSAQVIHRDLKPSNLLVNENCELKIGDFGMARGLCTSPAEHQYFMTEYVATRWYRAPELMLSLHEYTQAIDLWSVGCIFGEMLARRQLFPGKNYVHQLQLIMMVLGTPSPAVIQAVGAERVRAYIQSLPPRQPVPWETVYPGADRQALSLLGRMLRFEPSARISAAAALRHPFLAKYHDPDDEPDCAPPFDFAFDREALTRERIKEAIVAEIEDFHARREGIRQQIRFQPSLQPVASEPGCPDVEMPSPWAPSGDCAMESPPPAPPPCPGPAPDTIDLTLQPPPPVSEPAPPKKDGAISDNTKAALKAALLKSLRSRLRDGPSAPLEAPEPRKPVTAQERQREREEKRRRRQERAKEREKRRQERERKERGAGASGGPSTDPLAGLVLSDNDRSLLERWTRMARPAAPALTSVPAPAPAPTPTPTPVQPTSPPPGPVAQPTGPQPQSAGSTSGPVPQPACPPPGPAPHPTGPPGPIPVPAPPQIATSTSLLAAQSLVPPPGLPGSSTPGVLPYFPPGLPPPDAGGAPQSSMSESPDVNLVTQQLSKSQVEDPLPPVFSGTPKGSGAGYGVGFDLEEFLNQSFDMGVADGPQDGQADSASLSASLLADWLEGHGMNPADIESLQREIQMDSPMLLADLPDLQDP

SMILES	IC50 (HSP90α protein [1]) [nM]	IC50 (HSP90α protein [2]) [nM]	EC50 [3] [nM]	EC50 [4] [nM]	EC50 [5] [nM]	EC50 ([6]; Homo sapiens, MV4-11) [nM]	EC50 [7] [nM]	MAPK7 degradation (30 nM) (MAPK7 [8])	MAPK7 degradation (100 nM) (MAPK7 [8])	MAPK7 degradation (1000 nM) (MAPK7 [8])	MAPK7 degradation (300 nM) (MAPK7 [8]; 300 nM)	IC50 (MAPK7 [9]) [nM]	EC50 [6] [nM]	ERBB2 degradation (ERBB2)
CCOc1cc(N2CCC(C(=O)N3CCC(N4CCN(Cc5ccc(-n6c(O)nnc6-c6cc(C(C)C)c(O)cc6O)cc5)CC4)CC3)CC2)ccc1Nc1ncc2c(n1)N(C)c1ccccc1C(=O)N2C [Compound 004, 2-((4-(4-(4-(4-(4-(3-(2,4-dihydroxy-5-isopropylphenyl)-5-hydroxy-4H-1,2,4-triazol-4-yl)benzyl)piperazin-1-yl)piperidine-1-carbonyl)piperidin-1-yl)-2-ethoxyphenyl)amino)-5,11-dimethyl-5H-benzo[e]pyrimido[5,4-b][1,4]diazepin-6(11H)-one]	100 to 1000	100 to 1000	100 to 1000	< 100	< 100	< 100	< 100	C (< 33% degradation)	C (< 33% degradation)	A (>66% degradation)	–	–	–	B (DC50 = 100-1000 nM)
CCOc1cc(N2CCC(C(=O)N3CCC(CN4CCN(Cc5ccc(-n6c(O)nnc6-c6cc(CC)c(O)cc6O)cc5)CC4)CC3)CC2)ccc1Nc1ncc2c(n1)N(C)c1ccccc1C(=O)N2C [Compound 013, 2-((2-ethoxy-4-(4-(4-((4-(4-(3-(5-ethyl-2,4-dihydroxyphenyl)-5-hydroxy-4H-1,2,4-triazol-4-yl)benzyl)piperazin-1-yl)methyl)piperidine-1-carbonyl)piperidin-1-yl)phenyl)amino)-5,11-dimethyl-5H-benzo[e]pyrimido[5,4-b][1,4]diazepin-6(11H)-one]	–	100 to 1000	–	100 to 1000	100 to 1000	< 100	100 to 1000	C (< 33% degradation)	C (< 33% degradation)	A (>66% degradation)	–	–	–	B (DC50 = 100-1000 nM)
CCOc1cc(N2CCC(C(=O)N3CCC(N4CCN(c5ccc(-n6c(O)nnc6-c6cc(C(C)C)c(O)cc6O)cc5)CC4)CC3)CC2)ccc1Nc1ncc2c(n1)N(C)c1ccccc1C(=O)N2C [Compound 040, 2-((4-(4-(4-(4-(4-(3-(2,4-dihydroxy-5-isopropylphenyl)-5-hydroxy-4H-1,2,4-triazol-4-yl)phenyl)piperazin-1-yl)piperidine-1-carbonyl)piperidin-1-yl)-2-ethoxyphenyl)amino)-5,11-dimethyl-5,11-dihydro-6H-benzo[e]pyrimido[5,4-b][1,4]diazepin-6-one]	100 to 1000	–	100 to 1000	< 100	< 100	< 100	100 to 1000	C (< 33% degradation)	B (33-66% degradation)	A (>66% degradation)	A (>66% degradation)	–	–	–

More lines, main results first:

IC50 (HSP90α protein [1]) [nM]	IC50 (HSP90α protein [2]) [nM]	EC50 [3] [nM]	EC50 [4] [nM]	EC50 [5] [nM]	EC50 ([6]; Homo sapiens, MV4-11) [nM]	EC50 [7] [nM]	MAPK7 degradation (30 nM) (MAPK7 [8])	MAPK7 degradation (100 nM) (MAPK7 [8])	MAPK7 degradation (1000 nM) (MAPK7 [8])	MAPK7 degradation (300 nM) (MAPK7 [8]; 300 nM)	IC50 (MAPK7 [9]) [nM]	EC50 [6] [nM]	SMILES	ERBB2 degradation (ERBB2)
> 1000	–	> 1000	> 1000	> 1000	> 1000	> 1000	–	–	–	–	> 1000	–	CCOc1cc(N2CCC(C(=O)N3CCC(CN4CCN(Cc5ccc(-n6c(O)nnc6-c6cc(C(C)C)c(O)cc6OC)cc5)CC4)CC3)CC2)ccc1Nc1ncc2c(n1)N(C)c1ccccc1C(=O)N2C [Compound 052, 2-((2-ethoxy-4-(4-(4-((4-(4-(3-hydroxy-5-(4-hydroxy-5-isopropyl-2-methoxyphenyl)-4H-1,2,4-triazol-4-yl)benzyl)piperazin-1-yl)methyl)piperidine-1-carbonyl)piperidin-1-yl)phenyl)amino)-5,11-dimethyl-5,11-dihydro-6H-benzo[e]pyrimido[5,4-b][1,4]diazepin-6-one]	C (DC50 > 1000 nM)
100 to 1000	–	100 to 1000	–	–	–	100 to 1000	–	–	–	–	100 to 1000	< 100	CCOc1cc(N2CCC(C(=O)N3CCC(CN4CCN(Cc5ccc(-n6c(C(=O)NC(C)C(F)(F)F)nnc6-c6cc(CC)c(O)cc6O)cc5)CC4)CC3)CC2)ccc1Nc1ncc2c(n1)N(S(C)(=O)=O)c1ccccc1C(=O)N2C.Cl (centres unmarked) [Compound 078, 4-(4-((4-((1-(1-(3-ethoxy-4-((5-methyl-11-(methylsulfonyl)-6-oxo-6,11-dihydro-5H-benzo[e]pyrimido[5,4-b][1,4]diazepin-2-yl)amino)phenyl)piperidine-4-carbonyl)piperidin-4-yl)methyl)piperazin-1-yl)methyl)phenyl)-5-(5-ethyl-2,4-dihydroxyphenyl)-N-(1,1,1-trifluoropropan-2-yl)-4H-1,2,4-triazole-3-carboxamide]	B (DC50 = 100-1000 nM)
